# Measurements: ChEMBL document CHEMBL4765228, “Indole-like Trk receptor antagonists” (Eur J Med Chem, 2016)
# Assays:
# [1] = biological target: T1, High affinity nerve growth factor receptor (Homo sapiens, UniProt P04629); experiment: Inhibition of GAL4 fused TrkA (unknown origin) expressed in PC12 cells transfected with pFA2-Elk plasmid and pFR-luciferase plasmid measured for 18 hrs by luciferase reporter gene assay; type: cell-based, Rattus norvegicus, PC-12
# [2] = biological target: T1, High affinity nerve growth factor receptor; experiment: Inhibition of TrkA (unknown origin)
# [3] = biological target: T1, High affinity nerve growth factor receptor; experiment: Inhibition of GST-fused TrkA (unknown origin) expressed in SF9 cells using H2N-RRRAAAEEIYGEINH2 peptide as substrate preincubated with ATP and Mg and measured by microtiter plate reader analysis
# T1 sequence (P04629 whole entry, the tested form may be a part): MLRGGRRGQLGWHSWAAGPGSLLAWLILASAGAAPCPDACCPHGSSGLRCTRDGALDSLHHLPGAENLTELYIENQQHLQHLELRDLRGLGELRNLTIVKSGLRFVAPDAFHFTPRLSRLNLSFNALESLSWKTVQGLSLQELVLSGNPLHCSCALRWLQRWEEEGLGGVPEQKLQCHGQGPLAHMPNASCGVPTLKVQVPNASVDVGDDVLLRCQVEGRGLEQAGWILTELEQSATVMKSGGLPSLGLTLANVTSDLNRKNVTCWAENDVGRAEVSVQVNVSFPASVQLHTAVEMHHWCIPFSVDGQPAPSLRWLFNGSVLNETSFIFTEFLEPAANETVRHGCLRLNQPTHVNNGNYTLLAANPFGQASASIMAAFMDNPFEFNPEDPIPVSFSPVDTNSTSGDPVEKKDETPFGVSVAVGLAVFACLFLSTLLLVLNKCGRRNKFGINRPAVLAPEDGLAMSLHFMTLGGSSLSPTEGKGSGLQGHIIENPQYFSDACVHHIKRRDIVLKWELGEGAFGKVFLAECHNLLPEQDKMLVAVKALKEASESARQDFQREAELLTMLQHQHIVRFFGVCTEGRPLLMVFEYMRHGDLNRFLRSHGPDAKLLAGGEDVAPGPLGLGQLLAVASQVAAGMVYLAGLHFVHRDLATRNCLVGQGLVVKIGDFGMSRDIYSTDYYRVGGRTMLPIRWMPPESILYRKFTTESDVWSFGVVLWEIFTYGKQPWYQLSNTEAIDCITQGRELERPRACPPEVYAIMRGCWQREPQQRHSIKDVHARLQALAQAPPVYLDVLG
SMILES,IC50 [1] [nM],IC50 [2] [nM],IC50 [3] [nM]
NS(=O)(=O)c1ccc(N/C=C2\C(=O)Nc3ccccc32)cc1,,,63
O=C1Nc2ccccc2/C1=C\c1c(Cl)[nH]c2ccccc12,,> 10000,
NS(=O)(=O)c1ccc2c(c1)/C(=C/c1c[nH]c3ccccc13)C(=O)N2,342,11.1,

# Second part, the compound after the results:
IC50 [1] [nM],IC50 [2] [nM],IC50 [3] [nM],SMILES
998,25.7,,Cn1cc(/C=C2\C(=O)Nc3ccccc32)c2ccccc21
366,5.22,,NS(=O)(=O)c1ccc2c(c1)/C(=C/c1c[nH]c3ccc(O)cc13)C(=O)N2
,> 10000,,Cc1[nH]c2ccccc2c1/C=C1\C(=O)Nc2ccccc21
